{
  "source": "patent US10894777B2",
  "about": "“TG2 inhibitor piperazine compounds and uses thereof” (UNIVERSITY OF OTTAWA, priority 2016, dated 2021)",
  "key": {"[1]": {"target": "T1, TG2 (Homo sapiens, UniProt P21980)", "T1 sequence (P21980 1-687)": "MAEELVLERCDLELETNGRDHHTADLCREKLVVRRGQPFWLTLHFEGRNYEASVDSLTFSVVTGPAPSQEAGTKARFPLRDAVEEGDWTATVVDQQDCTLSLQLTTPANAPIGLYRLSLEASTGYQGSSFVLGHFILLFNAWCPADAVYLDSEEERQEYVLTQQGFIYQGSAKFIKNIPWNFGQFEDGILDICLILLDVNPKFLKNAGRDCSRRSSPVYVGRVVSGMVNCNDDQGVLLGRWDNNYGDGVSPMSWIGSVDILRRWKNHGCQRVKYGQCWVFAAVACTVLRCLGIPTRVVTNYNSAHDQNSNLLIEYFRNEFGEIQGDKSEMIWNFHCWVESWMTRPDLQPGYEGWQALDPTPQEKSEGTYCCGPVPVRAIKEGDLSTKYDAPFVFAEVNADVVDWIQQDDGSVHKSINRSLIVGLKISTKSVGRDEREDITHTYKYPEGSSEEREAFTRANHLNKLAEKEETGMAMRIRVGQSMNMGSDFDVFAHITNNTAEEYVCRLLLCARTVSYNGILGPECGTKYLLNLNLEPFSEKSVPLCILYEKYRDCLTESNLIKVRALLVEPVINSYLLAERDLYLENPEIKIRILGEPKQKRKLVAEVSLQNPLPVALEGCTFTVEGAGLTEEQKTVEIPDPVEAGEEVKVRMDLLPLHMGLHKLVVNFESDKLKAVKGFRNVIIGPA", "assay": "In vitro GTP binding assay after inhibition of hTG2 (BODIPY GTP-γ-S)", "settings": "inhibitor 2×KI, 30 min; 3 μM GTP-γ-S FL BODIPY", "method": "In vitro GTP binding assay. GTP binding was measured using a method similar to that reported previously (McEwen, D. P. et al., Anal. Biochem. (2001), 291 (1): 109-117). […] The buffer was then exchanged to 100 mM MOPS (pH=7.0), 1 mM EGTA and 5 mM MgCl2 to remove calcium using a 10-kDa molecular weight cut off membrane. The fluorescent GTP analog was then added to give a final concentration of 3.0 μM and fluorescence was then measured on a microplate reader after 10 minutes of incubation (Ex/Em: 490/520 nm)."}, "[2]": {"target": "T1, TG2", "assay": "Colorimetric transamidase activity assay (AL5 substrate), hTG2", "assay_type": "biochemical", "settings": "Table 7", "quoted_text": "In Vitro Assays. Colorimetric transamidase activity assay. The activities of hTG1, hTG2 and hTG6 were measured via a colorimetric assay using the chromogenic substrate Cbz-Glu(γ-p-nitrophenyl ester)Gly (AL5). The assay was conducted at 25° C. in 100 mM MOPS buffer (pH 6.5) containing 3.0 mM CaCl2 and 50 μM EDTA. […] A stock solution of AL5 was prepared in DMSO such that the final concentration of this co-solvent was constant at 2.5% v/v. Stock solutions of the inhibitors were made in the buffer system previously described. The reaction was initiated with the addition of 40-60 mU/mL of the respective enzyme (0.10 μM hTG1, 0.25 μM hTG2 or 0.32 μM hTG6). Product formation was monitored at 405 nm in a polystyrene 96-well microplate using a BioTek Synergy 4 plate reader. […] Observed first-order rate constants of inactivation (kobs) were determined from non-linear regression fit to a mono-exponential model (Equation 1) of the observed absorbance of the enzymatic hydrolysis product, p-nitrophenolate (pNP). […] Experiments were done in triplicate and variation between repeats was less than 30%."}, "[3]": {"target": "T1, TG2", "assay": "Kinetic inactivation of purified recombinant human TG2, continuous spectrophotometric activity assay (Examples 3, 10)", "assay_type": "biochemical", "parameters": "made in house", "settings": "Table 4", "method": "Kinetic studies were carried out in vitro, using purified recombinant human TG2 (Roy, I. et al., Protein Expr. Purif. 87: 41-46, 2013) and a direct, continuous spectrophotometric activity assay (Leblanc, A. et al., Biochemistry 40: 8335-8342, 2001).\nKinetics. Kinetic runs were performed at 25° C. in 100 mM MOPS buffer (pH 7.0) containing 3 mM CaCl2 and 50 μM EDTA. […] Stock solutions of the substrate and inhibitors were prepared in DMF such that the final concentration of this co-solvent was constant at 10% v/v. Reactions were initiated with the addition of enzyme with an activity of approximately 0.05 U/mL. Kinetic evaluation was carried out by the method of Stone and Hofsteenge (Stone, S. R. and Hofsteenge, J., Biochem. J. 230: 497-502, 1985). […] Observed first-order rate constants of inactivation were determined from non-linear regression, to a mono-exponential model. These rate constants were in turn fit to equation 1 by non-linear regression, providing the kinetic parameters\nKinetic parameters were determined as described above."}, "[4]": {"system": "TG2 fusion protein mCer-TG2-YFP", "assay": "Fluorescence lifetime imaging (FLIM) of mCer-TG2-YFP conformation, SCC-13 cells", "assay_type": "cell-based, human", "settings": "10 μM A23187, 24 h; control 2.94 ns", "method": "We monitored the impact of each inhibitor on intracellular TG2 structure using FLIM (Fluorescence Lifetime Imaging Microscopy). FLIM is a quantitative method of assessing fluorescence lifetime that measures energy transfer between donor and accept probes Fluorescence lifetime is measured in nanoseconds and a short lifetime correlates with close contact between probes (FIG. 29B). An advantage of this method is that fluorescent lifetimes are independent of probe concentration. In the present experiments, we expressed in cells a TG2 fusion protein in which the donor probe (mCER) is fused to the N-terminus and the acceptor probe (YFP) at the C-terminus (FIG. 29B). mCER and YFP comprise an ideal donor/acceptor pair; the donor probe is excited by laser illumination and energy transfer to the acceptor is monitored. The fluorescent lifetime is shorter when TG2 is in the closed conformation which brings mCER and YFP close together. SCC-13 cells were electroporated with empty vector, mCER-TG2 or mCER-TG2-YFP.\nFluorescence lifetime imaging. Fluorescence lifetime images were acquired using FLIM system (Alba 5 from ISS). […] Emission was observed through bandpass filter 480/35 nm (Chroma Technology) and detected by a photomultiplier H7422-40 (Hamamatsu). FLIM data were acquired using time-domain modality (SPC-830 TCSPC module from Becker and Hickl GmbH). […] To account for intensity heterogeneity within single intensity images, two to five consecutive scans were acquired and summed to build FLIM intensity image for lifetime analysis. […] FLIM data were analyzed using VistaVision Suite software (Vista v.213 from ISS). Lifetime images were generated by fitting data using single exponential intensity decay model. Intensity threshold for lifetime analysis was set of at least 3-fold above the intensity of dim cells and fitting procedure was performed for binned pixels at level of 3 (7×7 pixels). Lifetime distribution within image is represented with histogram showing pixel frequency of specific lifetime. The average lifetime values with standard deviations were calculated based on all processed pixels in lifetime image. FRET values were calculated according to the formula ET=1−(τDA/τD), where τD is the lifetime of donor (mCer-TG2) and τDA is the lifetime of donor-acceptor pair (mCer-TG2—YFP)."}, "[5]": {"system": "SCC-13 cells", "assay": "Spheroid formation / survival assay, SCC-13 cells (ECS cells)", "assay_type": "cell-based, human", "settings": "for spheroid formation with kinase inhibitor: PF-573228 10 μM, 6 d", "method": "Spheroid formation assay. Cells, maintained as monolayer cultures in growth medium consisting of DMEM (Invitrogen, Frederick, Md.) supplemented with 4.5 mg/ml D-glucose, […] L-glutamine, […] sodium pyruvate, and 5% fetal calf serum, were harvested, collected by centrifugation, and resuspended in spheroid medium comprising DMEM/F12 (1:1) (DMT-10-090-CV, Mediatech Inc., Manassas, Va.) supplemented with 2% B27 serum-free supplement (17504-044, Invitrogen, Frederick, Md.), 20 ng/ml EGF (E4269, Sigma, St. Louis, Mo.), 0.4% bovine serum albumin (B4287, Sigma) and 4 μg/ml insulin (19278 Sigma, St. Louis, Mo.). The cells (40,000) were plated in 9.6 cm^2 wells in Costar six well ultra-low attachment cluster dishes (4371, Corning, Tewksbury, Mass.). Spheroid size and number was monitored with time in culture as previously described (Adhikary, G. et al., PLoS One 8:e84324, 2013).\nSpheroid formation assay. Spheroid formation assays were exactly as outlined previously (Adhikary, G. et al., PLoS ONE 8:e84324, 2013), except that the spheroids were grown in six well ultra-low attachment Costar cluster dishes (4371, Corning, Tewksbury, Mass.).\nSpheroid formation assay. Spheroid formation assays were as reported previously (Adhikary, G. et al., PLoS One 8:e84324, 2013), except that the spheroids were grown in 6-well ultralow attachment Costar cluster dishes (Corning)."}, "[6]": {"system": "EGFR", "settings": "cited from earlier work; for EGFR levels: U87, but not T98G cells, 24 hrs"}, "[7]": {"system": "glioblastoma multiforme (GBM) cell lines", "settings": "cited from earlier work"}, "[8]": {"target": "FAK kinase (Homo sapiens, UniProt Q05397)", "sequence (Q05397 whole entry)": "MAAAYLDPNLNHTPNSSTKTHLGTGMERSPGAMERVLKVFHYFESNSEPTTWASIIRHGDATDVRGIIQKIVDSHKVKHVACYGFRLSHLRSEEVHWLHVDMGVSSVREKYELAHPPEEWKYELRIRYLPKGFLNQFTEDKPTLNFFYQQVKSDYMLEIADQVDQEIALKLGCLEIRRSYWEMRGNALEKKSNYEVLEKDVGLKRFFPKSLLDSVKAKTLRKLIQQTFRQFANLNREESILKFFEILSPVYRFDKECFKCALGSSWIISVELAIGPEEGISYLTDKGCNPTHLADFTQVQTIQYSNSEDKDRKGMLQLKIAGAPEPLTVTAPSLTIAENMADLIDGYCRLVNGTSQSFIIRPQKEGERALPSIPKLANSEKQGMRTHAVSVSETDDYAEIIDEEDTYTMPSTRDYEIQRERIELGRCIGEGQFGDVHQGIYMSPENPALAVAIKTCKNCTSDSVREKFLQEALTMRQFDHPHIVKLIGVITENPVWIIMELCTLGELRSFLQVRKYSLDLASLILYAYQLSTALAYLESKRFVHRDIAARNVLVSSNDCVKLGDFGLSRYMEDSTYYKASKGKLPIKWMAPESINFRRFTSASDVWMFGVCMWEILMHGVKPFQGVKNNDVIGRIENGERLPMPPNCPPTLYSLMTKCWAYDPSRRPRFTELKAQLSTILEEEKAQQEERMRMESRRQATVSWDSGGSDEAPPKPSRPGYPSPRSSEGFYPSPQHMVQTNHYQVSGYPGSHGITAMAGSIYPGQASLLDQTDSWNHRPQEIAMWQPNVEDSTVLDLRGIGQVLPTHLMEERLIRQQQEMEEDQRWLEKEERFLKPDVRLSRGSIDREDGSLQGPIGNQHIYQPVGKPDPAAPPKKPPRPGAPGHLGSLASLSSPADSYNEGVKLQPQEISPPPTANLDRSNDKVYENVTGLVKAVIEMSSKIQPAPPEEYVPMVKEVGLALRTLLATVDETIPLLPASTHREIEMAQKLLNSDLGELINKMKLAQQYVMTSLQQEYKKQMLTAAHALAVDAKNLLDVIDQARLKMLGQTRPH", "quoted_text": "SCC-13 cells (40,000 per well) were grown in spheroid medium in attached (monolayer) or non-attached (spheroid, ECS cell). Cells were collected after 10 d and lysates were prepared for immunoblot. In (B), SCC-13 cells spheroid were grown for 8 d and extracts were immunoprecipitated as indicated prior to immunoblot. […] Cells were grown in spheroid medium in monolayer culture for 10 d prior to collection of lysates for immunoblot. […] In (J), (K), and (L), cells were double-electroporated with indicated siRNA and 24 h later plated for spheroid formation in the presence of the indicated inhibitor. […] The plotted values are mean±SEM and asterisks indicate significant change compared to control, n=3, p<0.005.\nImmunoblot. Equivalent amounts of protein were electrophoresed on denaturing and reducing 10% polyacrylamide gels and transferred to nitrocellulose membrane. […] Secondary antibody binding was visualized using ECL Prime (Amersham) chemiluminescence detection technology."}, "[9]": {"system": "ΔNp63α", "assay": "ΔNp63α level immunoblot, YAP1-siRNA SCC-13 cells", "assay_type": "cell-based, human", "settings": "1 μM lactacystin, 24 h", "method": "In (A), cells were grown in spheroid medium in monolayer or spheroid culture and after 10 d harvested for immunoblot. In (B), SCC13-Control-shRNA and SCC13-TG2-shRNA2 cells were grown in monolayer culture in spheroid medium and lysates were collected for immunoblot detection of the indicated epitopes. […] In (F), SCC13-Control-shRNA and SCC13-TG2-shRNA2 cells were grown as monolayers in spheroid medium and lysates collected at 6 d for marker detection. In (G), SCC-13 cells were double-electroporated with Control- or TG2-siRNA and given 24 h to recover before being seeded on chamber slides. The following day, cells were fixed in 4% paraformaldehyde, stained with anti-YAP1 and appropriate secondary antibody, and co-stained with DAPI. In (H), SCC-13 cells, double-electroporated with Control- or TG2-siRNA, were grown in spheroid medium for 48 h prior to extracts being prepared for assay of ΔNp63α mRNA by qRT-PCR. In (I), SCC-13 cells were grown as spheroids and at day 8 lysates were collected for immunoprecipitation/immunoblot. In (J), SCC-13 cells were double-electroporated with Control- or YAP-siRNA followed by treatment with 1 μM lactacystin in monolayer culture. Extracts were prepared after an additional 24 h. In (K), SCC-13 cells were double-electroporated with Control- or YAPsiRNA and after 2 d in monolayer culture extracts were prepared for immunoblot. […]"}},
  "note": "Non-standard residues stand in square brackets, D forms with d. Residues, ends and D or L forms follow the SMILES beside them. *: point of attachment. DON = [N-]=[N+]=CC(=O)CC[C@H](N)C(=O)O; Cbz = O=C(OCc1ccccc1)*",
  "data": [
    {"smiles": "C=CC(=O)NCCCC[C@H](NC(=O)OCc1ccccc1)C(=O)N1CCN(C(=O)c2cccc3ccccc23)CC1", "note": "[AA9, (S)-benzyl (1-(4-(1-naphthoyl)piperazin-1-yl)-6-acrylamido-1-oxohexan-2-yl)carbamate]", "values": [
      {"measurement": "GTP binding of hTG2 after incubation with inhibitor", "setting": "[1]", "result": "abolish GTP binding nearly completely"}
    ]},
    {"smiles": "C=CC(=O)NCCCC[C@H](NC(=O)OCc1ccccc1)C(=O)N1CCN(S(=O)(=O)C(C)C)CC1", "note": "[Compound 133, (S)-benzyl(6-acrylamido-1-(4-(isopropylsulfonyl)piperazin-1-yl)-1-oxohexan-2-yl)carbamate]", "values": [
      {"measurement": "kinact", "setting": "[2]; read-out: kinact (converted)", "result": 0.00833, "unit": "s⁻¹"},
      {"measurement": "kinact/KI", "setting": "[2]; read-out: kinact/KI (10^3M^−1 min^−1)", "result": 912, "unit": "M⁻¹ s⁻¹"},
      {"measurement": "melting point", "result": "48 to 49", "unit": "°C"},
      {"measurement": "kinact", "setting": "[3]", "result": 0.0115, "unit": "s⁻¹"},
      {"measurement": "kinact/KI", "setting": "[3]; read-out: kinact/Ki (μM^−1 min^−1), for ^a no saturation observed, efficiency obtained from initial slope", "result": 2800, "unit": "M⁻¹ s⁻¹"}
    ]},
    {"smiles": "CNc1ccc2oc(C[C@H]3O[C@@]4(CC[C@H]3C)O[C@H]([C@H](C)C(=O)c3ccc[nH]3)[C@H](C)C[C@H]4C)nc2c1C(=O)O", "note": "[Compound A23187, reference compound]", "values": [
      {"measurement": "fluorescence lifetime of mCer-TG2-YFP", "setting": "[4]", "result": "~3.1", "unit": "ns"}
    ]},
    {"smiles": "NCCCCCNC(=S)Nc1ccc2c(c1)C(=O)OC21c2ccc(O)cc2Oc2cc(O)ccc21", "note": "[FC, fluorescein cadaverine, reference compound]", "values": [
      {"measurement": "spheroid number, pre-formed spheroids", "setting": "[5]; spheroids grown for 8 days, then treated", "result": "reduced spheroid number"}
    ]},
    {"smiles": "CN(C)c1cccc2c(S(=O)(=O)NCCCCCN)cccc12", "note": "[MDC, monodansylcadaverine]", "values": [
      {"measurement": "EGFR levels", "setting": "[6]", "result": "reduced the levels of EGFR"},
      {"measurement": "EGFR phosphorylation in response to EGF", "setting": "[6]; U87 cells, 30 min pretreatment", "result": "greatly reduced the extent of EGFR phosphorylation"},
      {"measurement": "proliferation of GBM cell lines", "setting": "[7]", "result": "reduce proliferation in two out of three glioblastoma multiforme (GBM) cell lines tested"}
    ]},
    {"smiles": "CS(=O)(=O)c1cccc(CNc2nc(Nc3ccc4c(c3)CCC(=O)N4)ncc2C(F)(F)F)c1", "note": "[PF-573228, reference compound]", "values": [
      {"measurement": "FAK kinase activity", "setting": "[8]", "result": "reduced FAK kinase activity"},
      {"measurement": "spheroid formation with kinase inhibitor", "setting": "[5]", "result": "markedly reduced spheroid formation"}
    ]},
    {"smiles": "CC(C)(C)n1nc(-c2ccc(Cl)cc2)c2c(N)ncnc21", "note": "[PP2, reference compound]", "values": [
      {"measurement": "spheroid formation with kinase inhibitor", "setting": "[5]", "result": "suppressed spheroid formation"}
    ]},
    {"smiles": "COC(=O)[C@H](CC(C)C)NC(=O)[C@@H]1CCCN1C(=O)[C@@H](NC(=O)[C@H](CCC(=O)C=[N+]=[N-])NC(=O)OCc1ccccc1)C(C)C", "note": "[Z-DON] (Cbz-[DON]VPL-OMe)", "values": [
      {"measurement": "EGFR levels", "setting": "[6]", "result": "reduced the levels of EGFR"},
      {"measurement": "proliferation of GBM cell lines", "setting": "[7]", "result": "reduce proliferation in two out of three glioblastoma multiforme (GBM) cell lines tested"}
    ]},
    {"smiles": "CC(=O)N[C@@H](CSC(=O)[C@]1([C@@H](O)C(C)C)NC(=O)[C@H](C)[C@@H]1O)C(=O)O", "note": "[lactacystin]", "values": [
      {"measurement": "ΔNp63α reduction caused by YAP1-siRNA", "setting": "[9]", "result": "partially reversed"}
    ]}
  ]
}
